Where a name gives a salt, the structure may show the parent alone.
target: T1, human CGT (ceramide galactosyltransferase), CHO/CGT lysate (Homo sapiens, UniProt Q16880); assay: CGT enzyme assay, RapidFire/MS/MS readout (Table 1 ranges with one asterisk *); assay type: biochemical; conditions: RapidFire method (range with one asterisk *)
T1 construct: Full-length human CGT cDNA was cloned into the BamH1/Xho1 site of pcDNA3.1 (+); expressed in transfected cells; host or cells: Chinese hamster ovary (CHO) cells; lysate prepared with M-PER
T1 sequence (Q16880 21-541): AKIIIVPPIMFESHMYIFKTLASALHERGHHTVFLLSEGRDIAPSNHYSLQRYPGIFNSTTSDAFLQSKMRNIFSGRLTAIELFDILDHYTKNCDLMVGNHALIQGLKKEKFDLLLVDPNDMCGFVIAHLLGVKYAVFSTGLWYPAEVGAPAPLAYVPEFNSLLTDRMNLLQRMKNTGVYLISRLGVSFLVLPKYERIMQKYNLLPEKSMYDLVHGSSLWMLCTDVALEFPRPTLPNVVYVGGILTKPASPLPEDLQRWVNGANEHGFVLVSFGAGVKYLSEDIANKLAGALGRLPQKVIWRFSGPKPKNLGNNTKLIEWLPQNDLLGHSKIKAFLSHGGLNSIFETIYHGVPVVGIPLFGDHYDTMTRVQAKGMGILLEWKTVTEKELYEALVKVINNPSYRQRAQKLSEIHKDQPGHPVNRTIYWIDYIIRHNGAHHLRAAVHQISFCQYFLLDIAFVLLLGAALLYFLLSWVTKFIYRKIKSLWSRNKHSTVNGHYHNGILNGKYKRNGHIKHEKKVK
How it was run: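 IC50s come from variable-slope dose-response fits of internal-standard-normalized C6-NBD-dihydro-galactosylceramide, measured by RapidFire/MS/MS (ESI negative). Reactions: 1 h, 37 °C, human CGT-expressing CHO lysate (4 μg), 0.001–50 μM compound, 10 μM NBD-dihydro-ceramide, 17.5 μM UDP-galactose, 0.5% DMSO, pH 7.2; 0.01% Tween 80 added for ** values.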

IC50 [µM]	Structure (SMILES)
1 to 10	N[C@H]1CCN(C(=O)[C@@H](NS(=O)(=O)c2ccc3cc(OC4CCCC4)ccc3c2)C(F)(F)c2ccc(Br)cc2)C1 [Compound 140-1, N—((R)-3-((S)-3-aminopyrrolidin-1-yl)-1-(4-bromophenyl)-1,1-difluoro-3-oxopropan-2-yl)-6-(cyclopentyloxy)naphthalene-2-sulfonamide]
10 to 30	N[C@H]1CCN(C(=O)[C@H](NS(=O)(=O)c2ccc3cc(OC4CCCC4)ccc3c2)C(F)(F)c2ccc(Br)cc2)C1 [Compound 140-2, N—((S)-3-((S)-3-aminopyrrolidin-1-yl)-1-(4-bromophenyl)-1,1-difluoro-3-oxopropan-2-yl)-6-(cyclopentyloxy)naphthalene-2-sulfonamide]
1 to 10	NC1CCN(C(=O)[C@@H](NC(=O)[C@H](O)c2ccc(OCC3CCCCC3)cc2)C(F)(F)c2ccc(-c3ccc(Cl)cc3)cc2)CC1 [Compound 141-1, (R)—N—((R)-3-(4-aminopiperidin-1-yl)-1-(4′-chloro-[1,1′-biphenyl]-4-yl)-1,1-difluoro-3-oxopropan-2-yl)-2-(4-(cyclohexylmethoxy)phenyl)-2-hydroxyacetamide trifluoroacetate]
10 to 30	NC1CCN(C(=O)[C@H](NC(=O)[C@@H](O)c2ccc(OCC3CCCCC3)cc2)C(F)(F)c2ccc(-c3ccc(Cl)cc3)cc2)CC1 [Compound 141-2, (S)—N—((S)-3-(4-aminopiperidin-1-yl)-1-(4′-chloro-[1,1′-biphenyl]-4-yl)-1,1-difluoro-3-oxopropan-2-yl)-2-(4-(cyclohexylmethoxy)phenyl)-2-hydroxyacetamide trifluoroacetate]
1 to 10	NC1CCN(C(=O)[C@@H](NC(=O)[C@@H](O)c2ccc(OCC3CCCCC3)cc2)C(F)(F)c2ccc(-c3ccc(Cl)cc3)cc2)CC1 [Compound 141-3, (S)—N—((R)-3-(4-aminopiperidin-1-yl)-1-(4′-chloro-[1,1′-biphenyl]-4-yl)-1,1-difluoro-3-oxopropan-2-yl)-2-(4-(cyclohexylmethoxy)phenyl)-2-hydroxyacetamide trifluoroacetate]
30 to 100	NC1CCN(C(=O)[C@H](NC(=O)[C@H](O)c2ccc(OCC3CCCCC3)cc2)C(F)(F)c2ccc(-c3ccc(Cl)cc3)cc2)CC1 [Compound 141-4, (R)—N—((S)-3-(4-aminopiperidin-1-yl)-1-(4′-chloro-[1,1′-biphenyl]-4-yl)-1,1-difluoro-3-oxopropan-2-yl)-2-(4-(cyclohexylmethoxy)phenyl)-2-hydroxyacetamide trifluoroacetate]

target: T1, human CGT (ceramide galactosyltransferase), CHO/CGT lysate; assay: CGT enzyme assay, RapidFire/MS/MS readout with 0.01% Tween added (Table 1 ranges with two asterisks **); assay type: biochemical; conditions: CGT enzymatic assay; range with two asterisks (**): RapidFire/MS/MS method with 0.01% Tween added
Procedure: Full-length human CGT cDNA was cloned into the BamH1/Xho1 site of pcDNA3.1 (+) mammalian expression vector (V90-20, Invitrogen, Carlsbad, Calif.) and the plasmid was transfected into Chinese hamster ovary (CHO) cells. Lysate was prepared using M-PER (Mammalian Protein Extraction Reagent, ThermoFisher Scientific, Grand Island, N.Y.) in the presence of a protease inhibitor cocktail (P8340, Sigma, Saint Louis, Mo.). Each 100 mm dish (100% confluent, approximately 1×10^7 cells) was lysed with 250 μL of M-PER containing protease inhibitors. Protein concentration was determined using a Pierce BCA protein assay kit (ThermoFisher Scientific). Four micrograms of CHO/CGT lysate was incubated with various concentrations of a compound (0.001 μM-50 μM) in 10 mM HEPES (pH 7.2) containing 35 μM dioleoylphosphatidylcholine, 5 mM MgCl2, 5 mM MnCl2, 1% BSA, 15 mM KCl, 1 mM EGTA, 8 mM CHAPS, 10 μM C6-NBD-dihydro-ceramide and 17.5 μM UDP-galactose in a final reaction volume of 20 μL at 37° C. for 1 hour. The final concentration of DMSO was 0.5% in both compound-treated and mock-treated samples. Tween 80 (0.01%) was optionally added to the reaction mixture to help solubilize the compounds. Each individual reaction was diluted with 80 μL of methanol:acetronitrile (1:3) containing 5 μM N-docdecanoyl-NBD-galactosylceramide (internal standard) to stop the reaction. 200 μL H2O:acetonitile (1:1) was added to precipitate the protein. After sufficient mixing, the plates were centrifuged at 2469 g for 38 minutes, 200 μL of supernatant was transferred to a LC/MS 96-deep well plate and a second spin was performed at 2469 g for 10 minutes. The final supernatant was injected in triplicate for RapidFire/MS/MS analysis.
Quantitative Analysis Using the RapidFire/MS/MS Method:
The quantitative analysis of C6-NBD-dihydro-ceramide and C6-NBD-dihydro-galactosylceramide was performed on a Rapid Fire 360 high-throughput mass spectrometry system (Agilent Technologies, Palo Alto, Calif.) coupled with a API4000^+ triple quadrupole mass spectrometer (Applied Biosystems, Concord, Ontario, Canada). RapidFire software packages, including RapidFire Control panel, RapidFire UI and RapidFire Integrator (Agilent Technologies), were used to control the RapidFire instrument and to process data. Analyst 1.6.2 software packages (Applied Biosystems) were used to control the MS system and acquire MS data. […] of sample was loaded on a micro-scale C4 solid-phase extraction (SPE) cartridge (Agilent Technologies) and salts were removed using water supplemented with 0.1% formic acid at the flow rate of 1.5 mL/min for 3 sec. C6-NBD-dihydro-ceramide and C6-NBD-dihydro-galactosylceramide were co-eluted into the mass spectrometer using acetonitrile containing 0.1% formic acid at the flow rate of 1.0 mL/min for 3 sec. The total cycle time of one injection was 8 secs. The MS/MS detection was performed in ESI negative mode. The mass transition of C6-NBD-dihydro-galactosylceramide was m/z 752.6→678.6 using a −40 V collision energy, the mass transition of C6-NBD-dihydro-ceramide was m/z 590.6→115.8 using a −40 V collision energy and the mass transition of N-docdecanoyl-NBD-galactosylceramide was m/z 820.9→746.3 using a −45 V collision energy.
The C6-NBD-dihydro-galactosylceramide reading was normalized first by dividing the peak area of C6-NBD-dihydro-galactosylceramide by the peak area of the internal standard, N-docdecanoyl-NBD-galactosylceramide. IC50 values (see Table 1, where data ranges with one asterix (*) correspond to analysis using the RapidFire/MS/MS method, and data ranges with two asterixes (**) correspond to analysis using the RapidFire/MS/MS method with 0.01% Tween added) were generated from sigmoidal dose-response curves (variable slope) with GraphPad Prism software (GraphPad Software, Inc., San Diego, Calif.) using the normalized peak areas of C6-NBD-dihydro-galactosylceramide or the percent inhibition of C6-NBD-dihydro-galactosylceramide accumulation relative to DMSO control. […]

IC50 [µM]	Structure (SMILES)
< 1	COc1cc(C(F)(F)[C@H](NS(=O)(=O)c2ccc(OCC3CCCCC3)cc2)C(=O)N2CCC(N)CC2)ccc1Br [Compound 145-1, (R)—N-(3-(4-aminopiperidin-1-yl)-1-(4-bromo-3-methoxyphenyl)-1,1-difluoro-3-oxopropan-2-yl)-4-(cyclohexylmethoxy)benzenesulfonamide trifluoroacetate]

same assay, conditions: CGT enzyme assay, RapidFire/MS/MS method with 0.01% Tween added (range with two asterisks **)

Structure (SMILES)	IC50 [µM]
COc1cc(C(F)(F)[C@H](NS(=O)(=O)c2ccc(OCC3CCCCC3)cc2)C(=O)N2C3CCC2CC(N)C3)ccc1-c1ccc(Cl)cc1 (stereo partly drawn) [Compound 142-1, N-((2R)-3-(3-amino-8-azabicyclo[3.2.1]octan-8-yl)-1-(4′-chloro-2-methoxy-[1,1′-biphenyl]-4-yl)-1,1-difluoro-3-oxopropan-2-yl)-4-(cyclohexylmethoxy) benzenesulfonamide trifluoroacetate]	< 1
COc1cc(C(F)(F)[C@@H](NS(=O)(=O)c2ccc(OCC3CCCCC3)cc2)C(=O)N2C3CCC2CC(N)C3)ccc1-c1ccc(Cl)cc1 (stereo partly drawn) [Compound 142-2, N-((2S)-3-(3-amino-8-azabicyclo[3.2.1]octan-8-yl)-1-(4′-chloro-2-methoxy-[1,1′-biphenyl]-4-yl)-1,1-difluoro-3-oxopropan-2-yl)-4-(cyclohexylmethoxy)benzenesulfonamide trifluoroacetate]	1 to 10
COc1cc(C(F)(F)[C@@H](NS(=O)(=O)c2ccc3cc(OC4CCCC4)ccc3c2)C(=O)N2CCC(N)CC2)ccc1-c1ccc(Cl)cc1 [Compound 144-2, (S)—N-(3-(4-aminopiperidin-1-yl)-1-(4′-chloro-2-methoxy-[1,1′-biphenyl]-4-yl)-1,1-difluoro-3-oxopropan-2-yl)-6-(cyclopentyloxy) naphthalene-2-sulfonamide trifluoroacetate]	1 to 10

Next, values leading:

IC50 [µM]	Structure (SMILES)
1 to 10	COc1cc(C(F)(F)[C@H](NS(=O)(=O)c2ccc3cc(OC4CCCC4)ccc3c2)C(=O)N2CCC(N)CC2)ccc1Br [Compound 143-1, (R)—N-(3-(4-aminopiperidin-1-yl)-1-(4-bromo-3-methoxyphenyl)-1,1-difluoro-3-oxopropan-2-yl)-6-(cyclopentyloxy)naphthalene-2-sulfonamide trifluoroacetate]
1 to 10	COc1cc(C(F)(F)[C@@H](NS(=O)(=O)c2ccc3cc(OC4CCCC4)ccc3c2)C(=O)N2CCC(N)CC2)ccc1Br [Compound 143-2, (S)—N-(3-(4-aminopiperidin-1-yl)-1-(4-bromo-3-methoxyphenyl)-1,1-difluoro-3-oxopropan-2-yl)-6-(cyclopentyloxy) naphthalene-2-sulfonamide trifluoroacetate]
< 1	COc1cc(C(F)(F)[C@H](NS(=O)(=O)c2ccc3cc(OC4CCCC4)ccc3c2)C(=O)N2CCC(N)CC2)ccc1-c1ccc(Cl)cc1 [Compound 144-1, (R)—N-(3-(4-aminopiperidin-1-yl)-1-(4′-chloro-2-methoxy-[1,1′-biphenyl]-4-yl)-1,1-difluoro-3-oxopropan-2-yl)-6-(cyclopentyloxy)naphthalene-2-sulfonamide trifluoroacetate]
30 to 100	COc1cc(C(F)(F)[C@@H](NS(=O)(=O)c2ccc(OCC3CCCCC3)cc2)C(=O)N2CCC(N)CC2)ccc1Br [Compound 145-2, (S)—N-(3-(4-aminopiperidin-1-yl)-1-(4-bromo-3-methoxyphenyl)-1,1-difluoro-3-oxopropan-2-yl)-4-(cyclohexylmethoxy) benzenesulfonamide trifluoroacetate]

Source: US20190322676A1, “CERAMIDE GALACTOSYLTRANSFERASE INHIBITORS FOR THE TREATMENT OF DISEASE” (BioMarin Pharmaceutical Inc., priority 2016, published 2019)
